From patent publication US20140050778A1, “NUCLEIC ACID BINDING COMPOUNDS, METHODS OF MAKING, AND USE THEREOF” (UNIVERSITY OF ROCHESTER, priority 2010, published 2014)

Experiments:
C1-S cells = assay: WST-1 viability; type: cell-based, mouse; details: C1-S cells at the assay concentrations
Method: The ability of selected compounds to inhibit the formation of CUG^exp RNA-MBNL1 complexes in mouse myoblasts was then evaluated. For this study, C2C12 mouse myoblasts engineered to stably express a firefly luciferase transcript with or without ˜800 uninterrupted CUG repeats in an hDMPK 3′UTR (clones C5-14 and C1-S, respectively) were used. Cells were grown in 100 μl growth media in 96-well plates to ˜10% confluency. Compound was added at various concentrations in triplicate to both C1-S and C5-14 cultures, and incubated for 3 days. Culture media was replaced with fresh media containing 1% WST-1 reagent (Roche). After ˜15-20 minutes of incubation, the WST-1 containing media was transferred to a clear 96-well plate, and the absorbances at 450 nm and 690 nm measured with a PerkinElmer EnVision Plate Reader. Cells were gently rinsed (1×PBS) before incubation at −20° C. in 100 μl 1X Passive Lysis Buffer (Promega) for 10 minutes. Immediately before luminescence detection, 20 μl of each lysate was mixed with 50 μl of Luciferase Assay Reagent (Promega) in a fresh opaque-white 96-well plate. Luminescence values were normalized for well-to-well variations in viable cell numbers by dividing by the corresponding (A450 nm-A690 nm) values of the WST-1 containing media.

HSA^LR transgenic mice = assay: Acute toxicity observed in treated mice; type: in vivo, mouse; details: 40 mg/kg intraperitoneally once per day for 5 days
Method: Mouse handling and experimental procedures were conducted in accordance with the Association for Assessment and Accreditation of Laboratory Animal Care. HSA^LR transgenic mice in line 20b expressing human skeletal actin RNA with 250 CUG repeats in the 3′ UTR were previously described (Mankodi, “Myotonic Dystrophy in Transgenic Mice Expressing an Expanded CUG Repeat,” Science 289:1769-1772 (2000), which is hereby incorporated by reference in its entirety). Age- and gender-matched HSA^LR mice (12-16 weeks old) were injected intraperitoneally with 40 mg/kg of compounds or saline alone once per day for 5 days. Mice were sacrificed one day after the last injection, and vastus muscle was obtained for splicing analysis. RNA extraction, cDNA preparation, and RT-PCR were performed as described previously. The PCR products were electrophoresed on agarose gels for separation, and scanned with a laser fluorimager (Typhoon, GE Healthcare). Quantitative analysis of amplified products was performed by ImageQuant software (Molecular Dynamics). Differences between two groups were evaluated by unpaired Student's t-test.

CCc1nc2cc3ccccc3cc2cc1C(=O)N1CCC[C@H]1C(=O)N[C@@H](C/C=C\C[C@H](NC(=O)[C@@H]1CCCN1C(=O)c1cc2cc3ccccc3cc2nc1CC)C(=O)N[C@@H](CCCCN)C(=O)NCCCN)C(=O)N[C@@H](CCCCN)C(=O)NCCCN [Compound 4]
WST-1 viability (C1-S cells): no observable toxicity
acute toxicity effects in mice (HSA^LR transgenic mice): significant acute toxicity effects
